Where a name gives a salt, the structure may show the parent alone. Read-outs that look alike come from different tables or passages of the source.
Tests used:
[1] = tested on: cultured human mast cells; experiment: Degranulation inhibition test using cultured human mast cells (IgE cross-linking, β-Hexosaminidase release); assay type: cell-based; settings: Mast cell, cultured human mast cells, read-out: human degranulation ave. IC50
Summary of the method: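 Degranulation was triggered by anti-hIgE (10 μg/mL final, 30 min, 37 °C) after a 10-min compound pretreatment (DMSO 0.1%) of cord-blood CD34+-derived mast cells primed 5 days with IL-4 and IgE. β-Hexosaminidase in supernatant was measured with p-nitrophenyl-GlcNAc substrate (A405), expressed against water-lysed total; IC50 (M).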

[2] = target: GST-Syk Full Protein (human) (Homo sapiens, UniProt P43405); experiment: Syk kinase inhibition test (HTRF method); assay type: biochemical
Summary of the method: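 HTRF read-out: after EDTA termination and 1 h with XL665-streptavidin and Eu-anti-phosphotyrosine, the 665/620 nm ratio was measured. The reaction ran 30 min at 20–25 °C with final 6.4 nM human GST-Syk, 250 nM biotinylated peptide, 100 μM ATP, pH 7.0 HEPES buffer, 2% DMSO.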

[3] = anti-hIgE stimulation, β-Hexosaminidase index, average
[4] = HTRF, 100 μM ATP, 30 min room temperature, average, read-out: sykHTRF ave IC50
[5] = Tables 1-x, compounds A, read-out: sykHTRF ave IC50

| Compound | IC50 [1, 3] [nM] | IC50 [2, 4] [nM] | also measured |
| --- | --- | --- | --- |
| Cc1ccnc(Nc2cccc(-c3cnc([C@H]4CC[C@H](C(=O)N5CC[C@@H](O)C5)CC4)s3)n2)c1 [Compound A-241, ((R)-3-hydroxypyrrolidin-1-yl)-(trans-4-{5-[6-(4-methylpyridin-2-ylamino)pyridin-2-yl]thiazol-2-yl}cyclohexyl)metanone] | > 1000 | < 100 |  |
| Cc1ccnc(Nc2cccc(-c3cnc([C@H]4CC[C@H](C(=O)N5CCC(N)CC5)CC4)s3)n2)c1 [Compound A-290, (4-aminopiperidin-1-yl)-(trans-4-{5-[6-(4-methylpyridin-2-ylamino)pyridin-2-yl]thiazol-2-yl}cyclohexyl)methanone] | > 1000 | < 100 |  |
| COc1ccnc(Nc2cccc(-c3cnc(N4CCOCC4)s3)n2)c1 [Compound A-422, N-(4-methoxypyridin-2-yl)-N-{6-[2-(morpholin-4-yl)thiazol-5-yl]pyridin-2-yl}amine] |  |  | IC50 ([1]; Tables 1-x, compounds A): 100 to 1000 nM; IC50 [2, 5]: < 100 nM |
| Cc1ccnc(Nc2cccc(-c3cnc([C@H]4CC[C@H](C(=O)N5C[C@@H](O)[C@@H](O)C5)CC4)s3)n2)c1 [Compound A-174, ((3R,4S)-3,4-dihydroxypyrrolidin-1-yl)-(trans-4-{5-[6-(4-methylpyridin-2-ylamino)pyridin-2-yl]thiazol-2-yl}cyclohexyl)methanone] | 100 to 1000 | < 100 |  |
| Cc1ccnc(Nc2cccc(-c3cnc([C@H]4CC[C@H](CN5CCC(O)CC5)CC4)s3)n2)c1 [Compound A-296] | > 1000 | 100 to 1000 |  |
| COc1ccnc(Nc2cccc(-c3cnc([C@H]4CC[C@H](C(=O)O)CC4)s3)n2)c1 [Compound A-188, trans-4-{5-[6-(4-methoxypyridin-2-ylamino)pyridin-2-yl]thiazol-2-yl}cyclohexanecarboxylic acid] | 100 to 1000 | < 100 |  |
| CC(=O)N[C@H](c1ccc(O)cc1)c1ncc(-c2cccc(Nc3cc(C)ccn3)n2)s1 [Compound A-161, N—((R)-(4-hydroxyphenyl)-{5-[6-(4-methylpyridin-2-ylamino)pyridin-2-yl]thiazol-2-yl}methyl)acetamide] | 100 to 1000 | < 100 |  |
| Cc1ccnc(Nc2cccc(-c3cnc(N4CCCC(CO)C4)s3)n2)c1 (stereo not shown) [Compound A-498, (1-{5-[6-(4-methylpyridin-2-ylamino)pyridin-2-yl]thiazol-2-yl}piperidin-3-yl)methanol] |  |  | IC50 ([1]; Tables 1-x, compounds A): 100 to 1000 nM; IC50 [2, 5]: < 100 nM |
| Cc1ccnc(Nc2cccc(-c3cnc(CCC4CCC(=O)CC4)s3)n2)c1 [Compound A-172, 4-(2-{5-[6-(4-methylpyridin-2-ylamino)pyridin-2-yl]thiazol-2-yl}ethyl)cyclohexanone] | 100 to 1000 | < 100 |  |
| CCOC(=O)c1ncc(-c2cccc(Nc3cc(C)ccn3)n2)s1 [Compound A-28, 5-[6-(4-methylpyridin-2-ylamino)pyridin-2-yl]thiazole-2-carboxylic acid ethyl ester] | 100 to 1000 | < 100 |  |
| Cc1ccnc(Nc2cccc(-c3cnc(N(C)CCc4ccc(C(=O)O)cc4)s3)n2)c1 [Compound A-593, 4-[2-(N-methyl-N-{5-[6-(4-methylpyridin-2-ylamino)pyridin-2-yl]thiazol-2-yl}amino)ethyl]benzoic acid dihydrochloride] |  |  | IC50 ([1]; Tables 1-x, compounds A): 100 to 1000 nM; IC50 [2, 5]: < 100 nM |
| Cc1ccnc(Nc2cccc(-c3ccc(C(=O)NCC(C)O)s3)n2)c1 (stereo not shown) [Compound B-41] |  |  | IC50 ([1]; Tables 2-x, thiophene compounds B): 100 to 1000 nM; IC50 ([2]; Tables 2-x, thiophene compounds B, read-out: sykHTRK ave IC50): 100 to 1000 nM |
| Cc1ccnc(Nc2cccc(-c3cnc(CCc4ccc(O)cc4)s3)n2)c1 [Compound A-135, 4-(2-{5-[6-(4-methylpyridin-2-ylamino)pyridin-2-yl]thiazol-2-yl}ethyl)phenol] | 100 to 1000 | < 100 |  |
| CC(=O)N[C@@H](C)c1ncc(-c2cccc(Nc3cc(Cl)ccn3)n2)s1 [Compound A-81, N—((S)-1-{5-[6-(4-chloropyridin-2-ylamino)pyridin-2-yl]thiazol-2-yl}ethyl)acetamide] | 100 to 1000 | < 100 |  |
